Results taken from patent publication US10842814B2, “Use of low dose arsenic for preserving genomic integrity” (Board of Regents of the University of Texas System, priority 2016, dated 2020).
Entries after “also recorded” stand apart in the source; their conditions may differ.

Legend:
[1] = Observation of arsenic-induced malignancy in animal model; type: in vivo
Text: Arsenic has different biological effects in vitro and induces expression of different sets of genes depending on the dose. Our approach with LDA aims to mitigate certain known adverse biological effects. For example, arsenic trioxide is a cytotoxic agent used to treat acute promyelocytic leukemia (APL). However, the dose of arsenic trioxide used for our strategy is much lower than the dose used to treat APL. Arsenic is also a known carcinogen.

telomerase = molecular target: T1, telomerase (Homo sapiens, UniProt O14746); assay: Telomerase activity by TRAP assay; type: cell-based; conditions: HEK 293T, LDA 0 nM to 500 nM for 24 hrs, 12 Gy IR, further 48 hrs
T1 construct: Extracted protein (500 ng) was used to assess telomerase activity by TRAP; endogenous in cells; host or cells: HEK 293T cells
Description: FIG. 7. HEK cells were stimulated with ConA, 10 μg/ml. After 24 hrs, LDA was introduced (range from 0 nM to 500 nM) and again incubated 24 hrs. 12 Gy of IR was delivered, cells were incubated an additional 48 hrs and harvested. Extracted protein (500 ng) was used to assess telomerase activity by TRAP, compared with a telomerase positive control and no-Arsenic, no-IR control. HI: heat inactivated.
However, we will test this observation in T lymphocytes, which are known to dynamically regulate telomerase expression. This will better recapitulate the effect of LDA within the hematopoietic compartment.

[2] = system: human adult foreskin keratinocytes; conditions: cited from earlier work
telomere = conditions: individuals with telomere maintenance disorders; cited from earlier work
[3] = system: mouse embryonic stem cells expressing RAD51^K133A; assay: Loss of heterozygosity (LOH) assay, miniHPRT deletion, 6-TG resistance; type: cell-based
Text: FIG. 8. […] NT; no arsenite treatment, WT; wild type embryonic stem cells, KA; mutant embryonic stem cells expressing RAD51^K133A
We performed a loss of heterozygosity (LOH) assay to detect mutations in the HPRT gene [resistance to 6-TG (thioguanine)] utilizing a mouse embryonic stem cells that express RAD51^K133A. We used a knockout-knockin strategy that introduces RAD51^K133A adjacent to the mouse RAD51 promoter while restoring miniHPRT, a positive/negative selection cassette: select for expression in HAT (hypoxanthine, aminopterin, thymidine) and select against expression in 6-TG. We screen for LOH of miniHPRT by selecting in 6-TG. Using this assay, we can detect a broad range of mutations. RAD51 is a recombinase that is essential for DNA double strand break repair and for protecting the nascent strand during replication. The K133A mutation is in the highly conserved Walker A motif and it causes a defect in ATP binding that disables the ability of RAD51 to induce topological changes in duplex DNA in an ATP-dependent manner.
For this assay, mutant mouse embryonic stem cells expressing RAD51^K133A were passaged two times while being selected in HAT to remove any cells that spontaneously deleted miniHPRT. Then LDA and HAT were applied to these cells for 2 days. […] Cells were then seeded onto new plates in 6-TG and colonies were counted 8 days later. […]

[4] = Clinical trial: toxicity and blood counts during myelosuppressive chemotherapy; type: in vivo, human
Text: Additionally, data from a clinical trial supports a beneficial effect of LDA in patients. The trial had two objectives: 1) to define the lowest safe dose of arsenic trioxide that blocks p53 activation in patients and 2) to assess the potential of LDA in decreasing hematological toxicity from myelosuppressive chemotherapy. Patients scheduled for treatment with at least 4 cycles of myelosuppressive chemotherapy with a minimum of 2 weeks between the cycles were eligible.
The p53 expression level in patients' peripheral lymphocytes was measured as a surrogate marker for p53 activity for the patients. […] For the second stage of the study (second objective), patients were treated with chemotherapy without any LDA pretreatment before cycles 1, 3 and 5. They were treated with intravenous LDA of 0.005 mg/kg for 3 days prior to cycles 2, 4 and 6. […] Because the competing and compounding effects of multi-drug chemotherapy on p53 were felt to affect the p53 activity even in the presence of LDA pretreatment, we decided to focus on p53 activity obtained just prior to chemotherapy administration (on day 1). If the p53 activity level for the subsequent cycle (e.g., cycle 2 for cycle 1, cycle 4 for cycle 3 etc.) was lower than the baseline cycle, p53 was defined as “suppressed” for the pair of cycles. […]

peripheral T-lymphocytes = assay: Telomere length of ConA-stimulated peripheral blood T-lymphocytes after radiation or chemotherapy; type: cell-based, human; conditions: 100 nM arsenic trioxide for 24 hours, then 12 Gy X-ray, harvested 48 hours later
Description: FIG. 2. T-lymphocytes isolated from healthy donors' peripheral blood were incubated with 10 μg/ml of Concanavalin A overnight. The cells were treated with either solvent or 100 nM arsenic (As) trioxide for 24 hours, followed by 12 Gy of X-ray treatment. Forty-eight hours later, the cells were harvested for telomere length measurement. The results represent four independent experiments. Paired student's t-test was used to calculate the p values.
FIG. 3. (A) Live cell percentage and (B) relative telomere length of T-lymphocytes in response to a serial dilution of etoposide. (C) Live cell percentage and (D) relative telomere length of T-lymphocytes treated with solvent or 160 μM etoposide in the presence or absence of LDA pretreatment.
FIG. 4. (A) Live cell percentage and (B) relative telomere length of T-lymphocytes in response to a serial dilution of doxorubicin. (C) Live cell percentage and (D) relative telomere length of T-lymphocytes treated with solvent or 1.6 μM doxorubicin in the presence or absence of LDA pretreatment.
As one of the first steps to explore the role of LDA in protecting the bone marrow from DNA DSBs as observed in FIG. 1 above, we studied the effect of LDA on telomere length in the setting of IR. We observed the expected shortening of telomere length in the peripheral T-lymphocytes (obtained from donors' peripheral blood and proliferated with ConA) after IR.

[5] = system: mouse embryonic stem (ES) cells (WT, msh2−/−, p53−/−); assay: Survival fraction of ES cells exposed to γ radiation and LDA; type: cell-based
Description: FIG. 6. Dose response to γ radiation and sodium (Na) arsenite. (A, B) Survival fraction curves to determine the working doses. The wild type (WT) cells (black, green) are the parental cells for the msh2 and p53 mutations, respectively. (C, D) Survival fraction curves with msh2−/− and p53−/− cells exposed to γ radiation and LDA (100 nM Na arsenite). Error bars are shown for the average of 3 independent experiments.
To discover LDA essential genes, cell survival and DNA damage/mutation assays will be performed. First we will establish working doses for all control and mutant cells in Table 1 since they will vary depending on the mutation. As a pilot we started with ES cells mutated for Msh2 and p53 since mutations in both are implicated in the development and progression of secondary MDS/AML.
Msh2 is a member of mismatch repair (MMR) important for postreplication repair and homologous recombination regulation while p53 is essential for responses to a variety of stresses including DNA damage and ribosomal stress. Based on the dose response curve (FIGS. 6A, B), cells will be exposed to 100 nM sodium arsenite 24 hours before exposure to 3-6 Gy. […] Since the differences for the […] cells and their control cells are small, we will repeat the experiment with different Na arsenite doses. […]

untransformed cells = assay: Pretreatment of untransformed cells with LDA: p53, NF-kB, glycolysis; type: cell-based; conditions: in vitro and in vivo studies
Text: Activation of p53 is one of the major pathways by which DNA damaging agents such as radiation therapy and chemotherapy cause toxicity in normal tissues and it induces a cascade of events that eventually leads to cell senescence or death. […] This metabolic shift provides cells with effective protection against cytotoxic radiation or chemotherapy, coupling the metabolic pathway to cellular resistance. […] This protective effect is selective to normal tissues, as it requires functional p53. Though not every cancer cell has detectable p53 mutation, essentially every cancer cell has dysfunctional p53. Therefore, cancer cells will not be protected by this strategy.
Activation of p53 is one of major pathways by which DNA damaging agents such as IR and chemotherapy cause toxicity in normal tissues, inducing a cascade of events that eventually leads to cell senescence or cell death. […] This metabolic shift provides cells with effective protection against cytotoxic IR or chemotherapy, coupling the metabolic pathway to cellular resistance. […] Importantly, this protective effect is selective to normal tissues, as it requires functional p53. Though not every cancer cell has a detectable p53 mutation, essentially every cancer cell has dysfunctional p53. Therefore, cancer cells will not be protected by this strategy.

Karpas 422 = assay: Mouse xenograft model with CD20 expressing lymphoma cell line, tumor volume; type: in vivo
Description: Treatments were initiated 1 week after implantation when tumors became palpable. Tumor volumes were measured periodically with calipers. Tumor volume was calculated using the equation: volume=length×width×depth×0.5236 […]. Two independent experiments were done and the tumor volumes were expressed as means±SE.

bone marrow cells = assay: Bone marrow protection against Y-90 ibritumomab tiuxetan-induced damage (H&E, γ-H2AX, TUNEL staining); type: in vivo, BALB/c mice
Description: At the indicated time points, mice were sacrificed by cervical […] and bone marrows were harvested for staining. (A) Quantification of γ-H2AX positive cells.
LDA pretreatment was administered through drinking water containing 1 mg/L arsenic trioxide for three days. […] Tissue samples were collected at different time points (3 hours to 5 weeks) after treatment.
Bone marrow damage was analyzed histologically with hematoxylin and eosin (H&E) staining, DNA DSBs were assessed by γ-H2AX staining and apoptosis was detected by terminal deoxynucleotidyl transferase dUTP nick end labeling (TUNEL) staining.

[6] = system: T-cell leukemic cell line (Loucy); assay: Relative telomere length of T-cell leukemic cell line after 12 Gy radiation; type: cell-based; conditions: presence or absence of LDA
Text: FIG. 5. Relative telomere length of T-cell leukemic cell line (Loucy) after 12 Gy of radiation in the presence or absence of LDA treatment.

T1 sequence (O14746 whole entry): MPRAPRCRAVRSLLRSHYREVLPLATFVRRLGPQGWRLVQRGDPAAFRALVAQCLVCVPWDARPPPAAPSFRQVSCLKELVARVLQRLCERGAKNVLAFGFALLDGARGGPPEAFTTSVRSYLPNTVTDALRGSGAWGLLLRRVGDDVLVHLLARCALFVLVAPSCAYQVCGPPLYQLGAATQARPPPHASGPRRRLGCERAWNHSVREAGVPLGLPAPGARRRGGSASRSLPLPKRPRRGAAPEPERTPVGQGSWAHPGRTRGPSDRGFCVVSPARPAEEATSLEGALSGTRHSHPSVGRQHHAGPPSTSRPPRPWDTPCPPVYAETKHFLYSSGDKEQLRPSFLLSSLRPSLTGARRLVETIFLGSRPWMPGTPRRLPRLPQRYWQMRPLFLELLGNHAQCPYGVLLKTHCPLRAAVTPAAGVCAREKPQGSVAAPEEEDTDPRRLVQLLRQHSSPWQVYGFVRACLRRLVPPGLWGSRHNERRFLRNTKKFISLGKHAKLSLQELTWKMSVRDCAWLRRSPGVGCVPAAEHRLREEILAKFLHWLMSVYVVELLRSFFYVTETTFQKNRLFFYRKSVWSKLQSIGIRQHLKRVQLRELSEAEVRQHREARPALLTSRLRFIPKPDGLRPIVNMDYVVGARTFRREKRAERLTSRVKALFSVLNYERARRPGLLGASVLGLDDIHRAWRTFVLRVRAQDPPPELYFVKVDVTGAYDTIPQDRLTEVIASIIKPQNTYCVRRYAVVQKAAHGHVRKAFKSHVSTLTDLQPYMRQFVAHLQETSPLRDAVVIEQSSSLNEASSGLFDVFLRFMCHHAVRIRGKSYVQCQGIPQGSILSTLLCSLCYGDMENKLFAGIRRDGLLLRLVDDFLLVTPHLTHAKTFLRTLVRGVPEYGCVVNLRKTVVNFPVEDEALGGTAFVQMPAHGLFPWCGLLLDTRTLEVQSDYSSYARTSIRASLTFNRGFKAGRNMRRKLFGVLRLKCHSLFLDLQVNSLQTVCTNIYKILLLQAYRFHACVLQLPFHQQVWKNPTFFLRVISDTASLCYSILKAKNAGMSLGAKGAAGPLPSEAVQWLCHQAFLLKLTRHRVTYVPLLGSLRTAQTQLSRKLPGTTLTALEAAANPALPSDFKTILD
T1 sequence (O60832 whole entry partner): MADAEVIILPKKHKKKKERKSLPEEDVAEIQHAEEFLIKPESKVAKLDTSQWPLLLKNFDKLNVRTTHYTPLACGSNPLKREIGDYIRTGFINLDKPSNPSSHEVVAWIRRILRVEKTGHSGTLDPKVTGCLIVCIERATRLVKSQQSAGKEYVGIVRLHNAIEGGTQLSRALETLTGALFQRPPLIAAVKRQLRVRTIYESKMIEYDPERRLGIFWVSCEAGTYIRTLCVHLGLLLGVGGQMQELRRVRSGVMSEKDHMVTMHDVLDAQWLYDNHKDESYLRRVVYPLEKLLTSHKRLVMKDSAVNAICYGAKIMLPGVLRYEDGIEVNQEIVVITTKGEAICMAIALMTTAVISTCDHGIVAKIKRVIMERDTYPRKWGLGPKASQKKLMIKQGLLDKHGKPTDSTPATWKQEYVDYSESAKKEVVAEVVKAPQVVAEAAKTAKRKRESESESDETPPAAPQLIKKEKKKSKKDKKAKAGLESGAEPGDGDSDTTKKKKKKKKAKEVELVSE
T1 sequence (Q9NPE3 whole entry partner): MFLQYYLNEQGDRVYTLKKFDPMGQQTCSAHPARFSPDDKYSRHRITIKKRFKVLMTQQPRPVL
T1 sequence (Q9NX24 whole entry partner): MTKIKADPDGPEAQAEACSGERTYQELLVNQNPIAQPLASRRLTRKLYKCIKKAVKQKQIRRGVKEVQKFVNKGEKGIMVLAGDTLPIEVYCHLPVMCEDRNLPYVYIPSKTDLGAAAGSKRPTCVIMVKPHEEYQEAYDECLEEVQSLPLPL
T1 sequence (Q9NY12 whole entry partner): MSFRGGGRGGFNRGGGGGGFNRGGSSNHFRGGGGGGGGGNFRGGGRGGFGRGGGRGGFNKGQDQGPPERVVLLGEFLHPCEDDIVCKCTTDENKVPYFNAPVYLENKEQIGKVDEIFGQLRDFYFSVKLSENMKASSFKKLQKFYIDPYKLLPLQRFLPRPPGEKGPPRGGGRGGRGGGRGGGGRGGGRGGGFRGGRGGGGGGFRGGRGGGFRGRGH
T1 sequence (Q9BUR4 whole entry partner): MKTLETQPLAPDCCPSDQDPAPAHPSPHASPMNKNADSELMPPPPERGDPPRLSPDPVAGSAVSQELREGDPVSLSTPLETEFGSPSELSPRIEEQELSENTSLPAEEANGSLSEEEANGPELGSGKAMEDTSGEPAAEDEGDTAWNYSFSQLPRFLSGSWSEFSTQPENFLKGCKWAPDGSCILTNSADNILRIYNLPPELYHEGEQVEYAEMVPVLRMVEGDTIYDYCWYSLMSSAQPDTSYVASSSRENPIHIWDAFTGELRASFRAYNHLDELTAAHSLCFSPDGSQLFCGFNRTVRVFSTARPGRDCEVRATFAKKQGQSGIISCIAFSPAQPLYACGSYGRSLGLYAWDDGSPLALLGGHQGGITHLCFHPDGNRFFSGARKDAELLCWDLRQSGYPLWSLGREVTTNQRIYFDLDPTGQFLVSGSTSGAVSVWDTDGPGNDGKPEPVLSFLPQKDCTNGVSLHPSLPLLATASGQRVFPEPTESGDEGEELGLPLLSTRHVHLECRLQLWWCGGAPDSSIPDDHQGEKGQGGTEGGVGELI

Compound: [AsH3] [arsenic]
- arsenic-induced malignancy [1]: not observed any arsenic-induced malignancy
- telomerase activity (TRAP) (telomerase): no obvious difference in telomerase activity

Compound: O[As](O)O [arsenite]
- concentration resulting in induced proliferation with enhanced NF-κB and AP-1 activity ([2]; 24 hr): ≤ 5 µM
- concentration with statistically significant decrease of cell viability [2]: ≥ 10 µM

Compound: C#C[C@]1(O)CC[C@H]2[C@@H]3CCC4=Cc5oncc5C[C@]4(C)[C@H]3CC[C@@]21C [danazol]
- telomere attrition (telomere): significantly reduce telomere attrition

Compound: O=[As]O [sodium arsenite]
- spontaneous deletion of miniHPRT (percentage of 6-TG-resistant cells) ([3]; 5 nM sodium arsenite): reduced this deletion
- spontaneous deletion of miniHPRT (percentage of 6-TG-resistant cells) ([3]; 100 nM sodium arsenite): reduced this deletion

Compound: arsenic trioxide
- arsenic trioxide related toxicity ([4]; patients, first stage, arsenic trioxide intravenously): None of these patients experienced any arsenic trioxide related toxicity

Compound: arsenic trioxide [LDA]
- telomere length after IR (peripheral T-lymphocytes): maintenance of telomere length; also recorded: helps prevent shortening of telomere length
- LDA protection of control and msh2−/− cells from γ radiation (survival fraction) ([5]; 100 nM Na arsenite 24 hours before γ radiation): protects both control and msh2^−/− cells from γ radiation
- LDA-mediated protection in p53−/− cells versus WT (survival fraction) ([5]; 100 nM Na arsenite, γ radiation, differences small): p53 appears to assist in LDA-mediated protection
- glycolysis (untransformed cells): marked induction of glycolysis
- p53 and NF-kB response (untransformed cells): induces concerted p53 suppression and NF-kB activation
- growth of the implanted tumors (tumor volume) (Karpas 422; LDA pretreatment alone): did not have any detectable effect
- effect of LDA pretreatment on Y-90-induced tumor growth suppression (Karpas 422; LDA pretreatment followed by Y-90 ibritumomab tiuxetan): without compromising tumor response; also recorded: no effect
- mean ANC, WBC and Hgb, p53 suppressed group relative to activated group ([4]; 26 patients, LDA 0.005 mg/kg for 3 days before myelosuppressive chemotherapy cycles): statistically significantly higher; also recorded: better blood counts
- bone marrow cell loss (loss of cellularity), H&E staining (bone marrow cells; LDA pretreatment (drinking water 1 mg/L arsenic trioxide, three days) before 200 μCi Y-90 ibritumomab tiuxetan via tail vein): protected; also recorded: significantly reduced
- apoptosis, TUNEL positive cells in bone marrow (bone marrow cells; LDA pretreatment before 200 μCi Y-90 ibritumomab tiuxetan): protected
- DNA DSBs, γ-H2AX positive cells in bone marrow (bone marrow cells; LDA pretreatment before 200 μCi Y-90 ibritumomab tiuxetan, 6 hours to 1 week after treatment): protected; also recorded: considerably diminished
- telomere length of leukemic cells [6]: does not make any difference
